Measurements published in patent US8173133B2, “Acyl pseudodipeptides which carry a functionalized auxiliary arm” (OM Pharma, priority 1999, dated 2012).

Test system: human peripheral blood mononuclear cells
Assay: inhibition of E. coli LPS-induced α TNF production in human peripheral blood mononuclear cells
Type: cell-based
Conditions: product 10 μg/ml; for 50% inhibition LPS: LPS concentration at which α TNF production is 50% of control; for max. Inhibition LPS: LPS concentration corresponding to maximum inhibition
Procedure: Mononuclear cells of peripheral blood are recovered from buffy coats of 6 healthy donors. Such buffy coat cells are resuspended and mononuclear cells are isolated by centrifugation on a Ficoll-Paque gradient (Amersham Pharmacia). Purified mononuclear cells are resuspended into RPMI-1640 medium supplemented with 10% FCS, antibiotics, mercaptoethanol and L-glutamine. Cell concentration is adjusted to 2×10^6 viable cells/ml.
Product mediated Inhibition is determined by preincubating those products with mononuclear cells, and adding, 1 hour later, serially diluted solutions of LPS capable of inducing α TFN production. […] E. coli LPS is serially diluted (10-fold dilution) to be in the range of 1 to 0.00001 μg/ml
50 μl of 10 μg/ml dilute product solutions in RPMI 1640 medium are dispensed into a microtiter plate. Each assay (10 μg/ml product concentration+dilute E. coli LPS) is run in triplicates and each microtiter plate includes a negative control comprised of plain medium. LPS-induced α TNF production (without inhibitor) is determined by adding E. coli LPS dilutions to RPMI medium.
100 μl of the cell suspension are added to each well containing dilutions of either product or control. Cells are incubated with the products for 1 hour in an incubator at 37° C., under 5% CO2 and a moisture saturated atmosphere.
At the end of the pre-incubation period, 50 μl of serially diluted solutions of E. coli LPS are added. Incubation of mononuclear cells with the product and LPS is extended for 18 hours. At the end of the cell activation period, the microtiter plates are centrifuged, and the supernatants are pooled and frozen at −80° C. as aliquots until time of ELISA assay.
Concentration of αTNF secreted by mononuclear cells is determined by chemiluminescent ELISA (QuantiGlo #QTAOO R&D kit). 4-fold dilutions of supernatant fluid are dispensed into each well of the microtiter plate to which anti-human αTNF antibodies are bound. The microtiter plate is incubated for 4 hours at room temperature. After washing, peroxidase-conjugated anti-human αTNF antibody is added. Following a 2 hour incubation period and a thorough washing, a chemiluminescent substrate is added and chemilunescence is read after 20 minutes. αTNF content in the supernatant fluid is determined with respect to a standard curve covering the 7000 to 0.7 pg/ml range.
Inhibition is characterized by the E. coli LPS concentration which elicits 50% production of α TNF during co-incubation in comparison to a control including only RPMI. This concentration increases as product inhibition activity becomes stronger. Knowing inhibition values of α TNF production, this concentration is given by calculating 100-(αTNF production induced by product and LPS)/(αTNF production induced by LPS alone)*100. From these inhibition data, concentration is determined by linear regression along the line segment which joins 2 LPS dilutions giving approx. 50% inhibition.
Product ability to inhibit α TNF production in mononuclear cells in response to LPS is further characterized by maximum inhibition. […] Results are calculated from a representative experience using all products.

CCCCCCCCCCCC(=O)O[C@H](CCCCCCCCCCC)CC(=O)N[C@H](CC(=O)N[C@@H](CC(=O)O)C(=O)O)C(=O)NCCC[C@H](COC(=O)CCCCCN)NC(=O)C[C@H](O)CCCCCCCCCCC [OM-197-Asp-AC, N—[(R)-3-dodecanoyloxytetradecanoyl]-D-aspartic acid, α-N-{(4R)-5-(6-aminohexanoyloxy)-4-[(R)-3-hydroxytetradecanoyl-amino]-pentyl}amide β-N-[(1S)-1,2-dicarboxyethyl]Amide]
max. Inhibition: 100%
50% inhibition LPS: 0.29 µg/mL
max. Inhibition LPS: 0.0058 µg/mL

CCCCCCCCCCCC(=O)O[C@H](CCCCCCCCCCC)CC(=O)N[C@H](CC(=O)O)C(=O)NCCC[C@H](COP(=O)(O)O)NC(=O)C[C@H](O)CCCCCCCCCCC [OM-197-MC-MP, N—[(R)-3-dodecanoyloxytetradecanoyl]-D-aspartic acid, α-N-{(4R)-5-dihydroxyphosphoryloxy-4-[(R)-3-hydroxytetradecanoyl-amino]pentyl}amide]
max. Inhibition: 100%
50% inhibition LPS: 0.19 µg/mL
max. Inhibition LPS: 0.001 µg/mL

CCCCCCCCCCCC(=O)O[C@H](CCCCCCCCCCC)CC(=O)N[C@H](CC(=O)O)C(=O)NCCC[C@H](COC(=O)CCCCCNC(=O)CCC(=O)O)NC(=O)C[C@H](O)CCCCCCCCCCC [OM-197-MC-AC-Succ, N—[(R)-3-dodecanoyloxytetradecanoyl]-D-aspartic acid, α-N-{(4R)-5-(6-succinylamidohexanoxyloxy)-4[(R)-3-hydroxy-tetradecanoylamino]pentyl}amide]
max. Inhibition: 100%
50% inhibition LPS: >1 µg/mL
max. Inhibition LPS: 0.044 µg/mL

CCCCCCCCCCCC(=O)O[C@H](CCCCCCCCCCC)CC(=O)NC(CCOP(=O)(O)O)C(=O)NCCCC(COC(=O)CCCCC(O)CO)NC(=O)C[C@H](O)CCCCCCCCCCC (stereo partly drawn) [OM-197-FV6, 3-[(R)-dodecanoyloxytetradecanoylamino]-4oxo-5-aza-9-[(R)-3-hydroxytetradecanoylamino]-decan-1,10-diol 1-dihydrogenphate 10-(6,7-dihydroxyheptanoate)]
max. Inhibition: 100%
50% inhibition LPS: >1 µg/mL
max. Inhibition LPS: 0.014 µg/mL

CCCCCCCCCCCC(=O)O[C@H](CCCCCCCCCCC)CC(=O)N[C@H](CC(=O)N[C@@H](CC(=O)O)C(=O)O)C(=O)NCCC[C@H](CO)NC(=O)C[C@H](O)CCCCCCCCCCC [OM-197-Asp, N—[(R)-3-dodecanoyloxytetradecanoyl]-D-aspartic acid, α-N-{(4R)-5-hydroxy-4-[(R)-3-hydroxytetradecanoylamino]-pentyl}Amide β-N-[(1S)-1,2-Dicarboxyethyl]Amide]
max. Inhibition: 100%
50% inhibition LPS: >1 µg/mL
max. Inhibition LPS: 0.00036 µg/mL

CCCCCCCCCCCC(=O)O[C@H](CCCCCCCCCCC)CC(=O)N[C@H](CC(=O)NCCCN)C(=O)NCCC[C@H](CO)NC(=O)C[C@H](O)CCCCCCCCCCC [OM-197-AP, N—[(R)-3-dodecanoyloxytetradecanoyl]-D-aspartic acid, α-N-{(4R)-5-hydroxy-4-[(R)-3-hydroxy-tetradecanoylamino]pentyl}-amide β-N-(3-aminopropyl)amide]
max. Inhibition: 100%
50% inhibition LPS: >1 µg/mL
max. Inhibition LPS: 0.016 µg/mL

CCCCCCCCCCCC(=O)O[C@H](CCCCCCCCCCC)CC(=O)N[C@H](CC(=O)N[C@@H](CCCCN)C(=O)O)C(=O)NCCC[C@H](CO)NC(=O)C[C@H](O)CCCCCCCCCCC [OM-197-Lys]
max. Inhibition: 100%
50% inhibition LPS: 0.70 µg/mL
max. Inhibition LPS: 0.0055 µg/mL

CCCCCCCCCCCC(=O)O[C@H](CCCCCCCCCCC)CC(=O)NC(CCOP(=O)(O)O)C(=O)NCCCC(COC(=O)CCCCCO)NC(=O)C[C@H](O)CCCCCCCCCCC (stereo partly drawn) [OM-197-FV8, 3-[(R)-3-dodecanoyloxytetradecanoylamino]-4-oxo-5-aza-9-[(R)-3-hydroxytetradecanoylamino]-decan-1,10-diol 1-dihydrogenphosphate 10-(6-hydroxyhexanoate)]
max. Inhibition: 100%
50% inhibition LPS: >1 µg/mL
max. Inhibition LPS: 0.0033 µg/mL

CCCCCCCCCCC[C@@H](O)CC(=O)N[C@H](CCCNC(=O)[C@@H](CC(=O)O)NC(C)=O)COC(=O)CCCCCN [OM-197-N′C2-MC-AC, N-acetyl-D-aspartic acid, α-N-{(4R)-5-(6-aminohexanoyloxy)-4-[(R)-3-hydroxytetradecanoylamino]-pentyl}amide]
max. Inhibition: 100%
50% inhibition LPS: 0.0003 µg/mL
max. Inhibition LPS: 0.00001 µg/mL

CCCCCCCCCCCC(=O)O[C@H](CCCCCCCCCCC)CC(=O)N[C@H](CC(=O)O)C(=O)NCCC[C@H](COC(=O)CCCCCO)NC(=O)C[C@H](O)CCCCCCCCCCC [OM-197-MC-FV7, N—[(R)-3-dodecanoyloxytetradecanoylamino]-D-aspartic acid, α-N-{(4R)-5-hydroxy-4-[(R)-3-hydroxytetradecanoylamino]pentyl}amide 5-O-(6-hydroxyhexanoate)]
max. Inhibition: 100%
50% inhibition LPS: >1 µg/mL
max. Inhibition LPS: 0.00035 µg/mL

CCCCCCCCCCCC(=O)O[C@H](CCCCCCCCCCC)CC(=O)NC(CCOP(=O)(O)O)C(=O)NCCC[C@H](COC(=O)CCCCCN)NC(=O)C[C@H](O)CCCCCCCCCCC (mixture of isomers) [OM-197-MP-AC (R/S, R), (3RS,9R)-3-[(R)-3-dodecanoyloxytetradecanoylamino]-4oxo-5-aza-9-[(R)-3-hydroxytetradecanoylamino]-decan-10-ol 1-dihydrogen-phosphate(6-aminohexanoate)]
max. Inhibition: 100%
50% inhibition LPS: >1 µg/mL
max. Inhibition LPS: 0.00002 µg/mL

CCCCCCCCCCCC(=O)O[C@H](CCCCCCCCCCC)CC(=O)N[C@H](CC(=O)N[C@@H](CCCCN)C(=O)O)C(=O)NCCC[C@H](COC(=O)CCCCCN)NC(=O)C[C@H](O)CCCCCCCCCCC [OM-197-Lys-AC]
max. Inhibition: 100%
50% inhibition LPS: >1 µg/mL
max. Inhibition LPS: 0.001 µg/mL

CCCCCCCCCCC[C@@H](O)CC(=O)N[C@H](CCCNC(=O)[C@@H](CC(=O)O)NC(=O)C(CCCCCC)OC(=O)CCCCCCCCC)COC(=O)CCCCCN (stereo partly drawn) [OM-197-N′(C10-20C8)-MC-AC, N-(2-decanoyloxyoctanoyl)-D-aspartic acid, α-N-{(4R)-5-(6-aminohexanoyloxy)-4-[(R)-3-hydroxytetradecanoylamino]-pentyl}amide]
max. Inhibition: 85%
50% inhibition LPS: 0.0009 µg/mL
max. Inhibition LPS: <0.00001 µg/mL

CCCCCCCCCCCC(=O)O[C@H](CCCCCCCCCCC)CC(=O)N[C@H](CC(=O)O)C(=O)NCCC[C@H](CO)NC(=O)C[C@H](O)CCCCCCCCCCC [OM-197-MC, N—[(R)-3-dodecanoyloxytetradecanoyl]-D-aspartic acid, α-N-{(4R)-5-hydroxy-4[(R)-3-hydroxytetradecanoylamino]-pentyl}amide]
max. Inhibition: 100%
50% inhibition LPS: 1 µg/mL
max. Inhibition LPS: 0.0043 µg/mL

CCCCCCCCCCCC(=O)O[C@H](CCCCCCCCCCC)CC(=O)N[C@@H](CCOP(=O)(O)O)C(=O)NCCC[C@H](COC(=O)CCCCCO)NC(=O)C[C@H](O)CCCCCCCCCCC [OM-197-MP-AC (S, R), (3S,9R)-3-[(R)-3-dodecanoyloxytetradecanoylamino]-4-oxo-5-aza-9-[(R)-3-hydroxytetradecanoylamino]-1,10-diol 1-dihydrogenphosphate 10-(6-hydroxyhexanoate)]
max. Inhibition: 100%
50% inhibition LPS: >1 µg/mL
max. Inhibition LPS: 0.00002 µg/mL
